# PubChem BioAssay (NCI)
#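 The concentration for 50% growth inhibition is given as GI50. TGI marks complete inhibition of growth.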
# Experiments:
# Experiment in all cases: NCI anticancer screen, dose series, 384-well format
# [1] = test system: PC-3 prostate
# [2] = test system: U251 glioblastoma
# [3] = test system: ACHN renal
# [4] = test system: EKVX NSCLC
# [5] = test system: SK-MEL-28 melanoma
# [6] = test system: HT29 colon
# [7] = test system: NCI-H322M lung
# [8] = test system: A498 renal
# [9] = test system: IGROV1 ovarian
# [10] = test system: NCI/ADR-RES ovarian
# [11] = test system: HS 578T breast
# [12] = test system: HOP-62 NSCLC
# [13] = test system: M14 melanoma
# [14] = test system: OVCAR-3 ovarian
# [15] = test system: MDA-MB-468 breast
# [16] = test system: CAKI-1 renal
# [17] = test system: OVCAR-5 ovarian
# [18] = test system: MALME-3M melanoma
# [19] = test system: HL-60(TB) leukemia
# [20] = test system: A549 NSCLC
# [21] = test system: OVCAR-4 ovarian
# [22] = test system: SNB-19 CNS
# [23] = test system: RXF 393 renal
# [24] = test system: KM12 colon
# [25] = test system: RPMI-8226 leukemia
# [26] = test system: MDA-MB-435 melanoma
# [27] = test system: MCF7 breast
# [28] = test system: DU-145 prostate
# [29] = test system: MDA-MB-231 breast
# [30] = test system: SK-MEL-5 melanoma
# [31] = test system: CCRF-CEM leukemia
# [32] = test system: SF-268 CNS
# [33] = test system: SNB-75 CNS
# [34] = test system: SF-539 CNS
# [35] = test system: NCI-H522 lung
# [36] = test system: COLO 205 colon
# [37] = test system: 786-0 renal
# [38] = test system: HOP-92 NSCLC
# [39] = test system: UACC-62 melanoma
# [40] = test system: OVCAR-8 ovarian
# [41] = test system: MOLT-4 leukemia
# [42] = test system: NCI-H460 NSCLC
# [43] = test system: UACC-257 melanoma
# [44] = test system: BT-549 breast
# [45] = test system: T-47D breast
# [46] = test system: NCI-H23 lung
# [47] = test system: SN12C renal
# [48] = test system: SF-295 CNS
# [49] = test system: SR leukemia
# [50] = test system: SW-620 colon
# [51] = test system: HCT-15 colon
# [52] = test system: NCI-H226 lung
# [53] = test system: TK-10 renal
# [54] = test system: HCC-2998 colon
# [55] = test system: SK-OV-3 ovarian
compound,measurement,setting,value
Nc1nc(N)c(N=O)c(OCC2CCCCC2)n1,GI50,[1],7.78 µM
same,TGI,[1],49.4 µM
same,GI50,[2],17.2 µM
same,TGI,[2],58.8 µM
same,GI50,[3],27.3 µM
same,TGI,[3],85.9 µM
same,GI50,[4],22.3 µM
same,TGI,[4],70.3 µM
same,GI50,[5],22.3 µM
same,TGI,[5],97.1 µM
same,GI50,[6],19.3 µM
same,TGI,[6],90.6 µM
same,GI50,[7],24.6 µM
same,TGI,[7],> 100 µM
same,GI50,[8],5.34 µM
same,TGI,[8],25.3 µM
same,GI50,[9],4.21 µM
same,TGI,[9],18.1 µM
same,GI50,[10],30.6 µM
same,TGI,[10],> 100 µM
same,GI50,[11],4.02 µM
same,TGI,[11],16.2 µM
same,GI50,[12],4.57 µM
same,TGI,[12],24.7 µM
same,GI50,[13],11.4 µM
same,TGI,[13],79 µM
same,GI50,[14],17.1 µM
same,TGI,[14],> 100 µM
same,GI50,[15],3.29 µM
same,TGI,[15],10.8 µM
same,GI50,[16],8.55 µM
same,TGI,[16],31.6 µM
same,GI50,[17],17.2 µM
same,TGI,[17],82.2 µM
same,GI50,[18],8.62 µM
same,TGI,[18],41.9 µM
same,GI50,[19],15 µM
same,TGI,[19],32.8 µM
same,GI50,[20],17.6 µM
same,TGI,[20],64.1 µM
same,GI50,[21],19.2 µM
same,TGI,[21],49.3 µM
same,GI50,[22],31.1 µM
same,TGI,[22],> 100 µM
same,GI50,[23],5.32 µM
same,TGI,[23],27.1 µM
same,GI50,[24],21.4 µM
same,TGI,[24],> 100 µM
same,GI50,[25],4.88 µM
same,TGI,[25],13.9 µM
same,GI50,[26],25.4 µM
same,TGI,[26],> 100 µM
same,GI50,[27],5.22 µM
same,TGI,[27],91.6 µM
same,GI50,[28],13.2 µM
same,TGI,[28],> 100 µM
same,GI50,[29],10.9 µM
same,TGI,[29],66 µM
same,GI50,[30],17.1 µM
same,TGI,[30],46.5 µM
same,GI50,[31],4.9 µM
same,TGI,[31],17 µM
same,GI50,[32],21.2 µM
same,TGI,[32],78.7 µM
same,GI50,[33],4.38 µM
same,TGI,[33],19.7 µM
same,GI50,[34],18.5 µM
same,TGI,[34],67.1 µM
same,GI50,[35],5.92 µM
same,TGI,[35],25.1 µM
same,GI50,[36],23.6 µM
same,TGI,[36],56 µM
same,GI50,[37],23.9 µM
same,TGI,[37],> 100 µM
same,GI50,[38],9.41 µM
same,TGI,[38],36.9 µM
same,GI50,[39],14.5 µM
same,TGI,[39],38.7 µM
same,GI50,[40],32.9 µM
same,TGI,[40],> 100 µM
same,GI50,[41],5.83 µM
same,TGI,[41],17.9 µM
same,GI50,[42],4.94 µM
same,TGI,[42],26.7 µM
same,GI50,[43],23.6 µM
same,TGI,[43],> 100 µM
same,GI50,[44],5.63 µM
same,TGI,[44],26.1 µM
same,GI50,[45],6.41 µM
same,TGI,[45],33.1 µM
same,GI50,[46],15.6 µM
same,TGI,[46],46.6 µM
same,GI50,[47],13.6 µM
same,TGI,[47],57.1 µM
same,GI50,[48],26 µM
same,TGI,[48],87 µM
same,GI50,[49],3.46 µM
same,TGI,[49],8.82 µM
same,GI50,[50],45.9 µM
same,TGI,[50],> 100 µM
same,GI50,[51],5.06 µM
same,TGI,[51],> 100 µM
same,GI50,[52],10.9 µM
same,TGI,[52],54.1 µM
same,GI50,[53],7.67 µM
same,TGI,[53],30 µM
same,GI50,[54],15.1 µM
same,TGI,[54],> 100 µM
same,GI50,[55],15 µM
same,TGI,[55],37.6 µM
